{"source": "paper PMC10762068", "about": "“Selective blockade of Cav1.2 (α1C) versus Cav1.3 (α1D) L-type calcium channels by the black mamba toxin calciseptine” (Nature Communications, 2024)", "key": {"[1]": {"test_system": "portal vein, thoracic aorta and uterine smooth muscle", "conditions": "cited from earlier work", "from_the_text": "(§1) Animal venoms constitute an immense reservoir for identification of new toxins and toxin-derived tools for modulating the physiological function of ion channels. In particular, toxins showing three-fingers molecular scaffold class include several cardiotoxic peptides that abound in snake venoms. Three fingers toxin peptides potently block a variety of proteins including nicotinic receptors, acetylcholinesterase, acid-sensitive ion channels (ASIC)[14], as well as cytotoxins that disrupt the lipid membrane. More than 30 years ago, M. Lazdunski ‘s group purified a 60-amino acid three- ..."}, "T-type Ca^2+ channel": {"test_system": "T-type Ca^2+ channel", "conditions": "cited from earlier work", "from_the_text": "as §1"}, "[2]": {"test_system": "voltage sensitive K^+ channels", "conditions": "cardiac ventricular cells, NlE115 neuroblastoma cells, RINmSF and HIT insulinomas, chicken dorsal root ganglia; cited from earlier work", "from_the_text": "as §1"}, "[3]": {"test_system": "voltage sensitive Na^+ channels", "conditions": "cardiac ventricular cells, NlE115 neuroblastoma cells, RINmSF and HIT insulinomas, chicken dorsal root ganglia; cited from earlier work", "from_the_text": "as §1"}, "N-type Ca^2+ channel": {"test_system": "N-type Ca^2+ channel", "conditions": "cited from earlier work", "from_the_text": "as §1"}, "cardiac contractions": {"test_system": "cardiac contractions", "conditions": "cited from earlier work", "from_the_text": "as §1"}, "[4]": {"test_system": "skeletal muscle (Cav1.1) L-type Ca^2+ channel", "conditions": "cited from earlier work", "from_the_text": "as §1"}, "[5]": {"test_system": "total ICaL (ICav1.2+ICav1.3) in SAN myocytes from wild-type mice", "experiment": "ICaL, patch clamp, SAN myocytes from wild-type mice", "format": "cell-based, mouse", "conditions": "for L-type Ca2+ current density: Cas 1 µM alone or + Nife 3 µM, n=8", "description": "Hearts from Wild-Type and Cav1.3^−/− mice were removed under general anesthesia consisting of 0.01 mg/g xylazine (2% Rompun; Bayer AG) and 0.1 mg/g ketamine (Imalgène;Merial) and immersed in a pre-warmed (36 °C) Tyrode solution containing (mM): 140 NaCl, 5.4 KCl, 1 MgCl2, 1.8 CaCl2, 5.5 D-glucose, and 5 Hepes (adjusted to pH 7.4 with NaOH). […] SAN tissue was excised and transferred into a low-Ca^2+ solution containing (mM): 140 NaCl, 5.4 KCl, 0.5 MgCl2, 0.2 CaCl2, 1.2 KH2PO4, 50 taurine, 5.5 D-glucose, 1 mg/mL BSA, and 5 Hepes–NaOH (adjusted to pH 6.9 with NaOH) for 5 min. Then, enzymatic digestion was carried out for 20-25 min at 36 °C in the low-Ca^2+ solution containing LiberaseTH Research Grade (0.15 mg/mL; Roche, Mannheim, Germany) and elastase (0.5 mg/mL; Worthington, Lakewood, NJ, USA). Digestion was stopped by washing the SAN in a “Kraftbrühe” (KB) medium containing (mM) 100 K-glutamate, 10 K-aspartate, 25 KCl, 10 KH2PO4, 2 MgSO4, 20 taurine, 5 creatine, 0.5 EGTA, 20 D-glucose, 5 Hepes, and 1 mg/mL BSA (adjusted to pH 7.2 with KOH). Single SAN cells were then dissociated from the SAN tissue by manual agitation using a flame-forged Pasteur’s pipette. To recover the automaticity of the SAN cells, Ca^2+ was gradually reintroduced in the cell’s storage solution to a final concentration of 1.8 mM. SAN cells were then left to rest for 1 h before recordings.\nFor patch-clamp recordings of SAN myocytes, cells were harvested in custom-made chambers with glass bottoms for cell attachment. Cells were then super-fused with Tyrode’s solution warmed at 36 °C before recording. Action potentials and ionic currents were recorded using an Axon multi-clamp patch-clamp 700B amplifier. Voltage-gated L-type Ca^2+ currents (ICaL) were recorded using standard whole cell patch-clamp configuration. For recording ICaL, we used an extracellular recording solution contained (mM): 135 tetraethylammonium chloride (TEA-Cl), 10 4-aminopyridine (4-AP), 1 MgCl2, 0.03 tetrodotoxin (TTX), 1 g/L Glucose, 2 CaCl2, 10 Hepes, (adjusted to pH = 7.2 with TEAOH). […] Pacemaker activity was recorded by the perforated patch-clamp technique using escin (40 µg/ml). For recording cell automaticity glass pipettes were filled with the intracellular solution contained (mM): 80 K-Aspartate, 50 KCl, 1 MgCl2, 5 HEPES, 2 CaCl2, 5 EGTA, 3 ATP-Na+ salt; pH was adjusted to 7.2 with KOH. Escin was dissolved in sterile H2O and added to the intracellular solution right before each experiment.\nIn all experiments of cellular electrophysiology, we employed synthetized analog of Cas, commercially available at Latoxan (ID: L8109). The native peptide was purified from the venom of Dendroaspis polylepis purchased from Latoxan, as previoulsly described. The pure peptide was obtained after gel filtration, cation exchange and C18 reversed phase chromatography. Its measured molecular mass (7036.26 Da average) was in accordance with the mass calculated from sequence data (7036.22 Da)."}}, "note": "Positions of bridges follow the written chain, without caps; N, C: chain ends. No end group written: not given here."}
{"sequence": "RICYIHKASLPRATKTCVENTCYKMFIRTQREYISERGCGCPTAMWPYQTECCKGDRCNK (disulfide 3-22, 17-39, 41-52, 53-58 (inferred)) [Cas, calciseptine]", "values": [{"measurement": "effect on smooth muscle contraction", "setting": "[1]", "result": "abolish all contraction"}, {"measurement": "effect on T-type Ca2+ channel", "setting": "T-type Ca^2+ channel", "result": "without affecting"}, {"measurement": "effect on voltage sensitive K+ channels", "setting": "[2]", "result": "does not affect"}, {"measurement": "effect on voltage sensitive Na+ channels", "setting": "[3]", "result": "does not affect"}, {"measurement": "effect on N-type Ca2+ channel", "setting": "N-type Ca^2+ channel", "result": "without affecting"}, {"measurement": "effect on cardiac contractions", "setting": "cardiac contractions", "result": "completely eliminate cardiac contractions"}, {"measurement": "effect on skeletal muscle (Cav1.1) L-type Ca2+ channel", "setting": "[4]", "result": "without affecting"}, {"measurement": "L-type Ca2+ current density", "setting": "[5]; 0 mV, Ctrl -8.45± 1.02", "result": "-3.87± 0.71", "unit": "pA/pF"}, {"measurement": "L-type Ca2+ current density", "setting": "[5]; +20 mV, Ctrl -5.09± 0.81", "result": "-1.53± 0.56", "unit": "pA/pF"}, {"measurement": "L-type Ca2+ current density", "setting": "[5]; -10 mV, Ctrl -8.20± 1.10", "result": "-4.24± 0.77", "unit": "pA/pF"}, {"measurement": "L-type Ca2+ current density", "setting": "[5]; -20 mV, Ctrl -5.61± 0.91", "result": "-3.37± 0.54", "unit": "pA/pF"}, {"measurement": "L-type Ca2+ current density", "setting": "[5]; -25 mV, Ctrl -3.96± 0.71", "result": "-2.46± 0.48", "unit": "pA/pF"}, {"measurement": "L-type Ca2+ current density", "setting": "[5]; -30 mV, Ctrl -2.44± 0.47", "result": "-1.49± 0.38", "unit": "pA/pF"}, {"measurement": "L-type Ca2+ current density", "setting": "[5]; -35 mV, Ctrl -1.18± 0.29", "result": "-0.90± 0.24", "unit": "pA/pF"}, {"measurement": "reduction of total ICaL", "setting": "[5]; Wild-Type SAN myocytes, voltage clamp", "result": "around 45%"}]}
